The text below walks through data of patent US8748417B2, “Amino-pyrrolidine-azetidine diamides as monoacylglycerol lipase inhibitors” (Janssen Pharmaceutica, NV, priority 2010, dated 2014).

pIC50: −log10 of the molar value.

Assay [1] relates to MGL (rat brain homogenate). As to the kind of experiment: 2-AG accumulation assay in rat brain homogenate. The assay is classed as biochemical. The conditions noted are these: compound 1 μM, percent of vehicle 2-AG accumulation. The protocol:
After a 15-min incubation time at 37° C., CaCl2 (final concentration=10 mM) was added and then incubated for 15 min at 37° C. in a total volume of 5 mL. The reactions were stopped with 6 mL organic solvent extraction solution of 2:1 chloroform/methanol. Accumulated 2-AG in the organic phase was measured by a HPLC/MS method, according to the following equation: percent vehicle=(2-AG accumulation in the presence of compound/2-AG accumulation in vehicle)×100.

The target in assay [2] is T1, purified wild type MGL (wt-MGLL 6H-11-313) (Homo sapiens, UniProt Q99685).
T1 construct: purified wild type MGL (wt-MGLL 6H-11-313)
T1 sequence (Q99685 1-303): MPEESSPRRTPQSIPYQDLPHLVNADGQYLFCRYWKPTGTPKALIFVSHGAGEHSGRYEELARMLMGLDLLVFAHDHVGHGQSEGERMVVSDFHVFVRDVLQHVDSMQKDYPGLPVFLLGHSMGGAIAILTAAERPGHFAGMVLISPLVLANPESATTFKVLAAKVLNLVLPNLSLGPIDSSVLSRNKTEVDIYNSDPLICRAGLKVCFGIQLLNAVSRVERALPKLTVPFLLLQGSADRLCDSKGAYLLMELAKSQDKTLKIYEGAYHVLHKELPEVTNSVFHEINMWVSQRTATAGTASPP
Kind of assay: MGL enzyme activity assay (4MU-B cleavage), wild type MGL. The assay is classed as biochemical. The conditions noted are these: wild type MGL 5 nM, 4MU-B 10 μM, 37° C.; read-out: MGL wild type inh IC50. The essentials: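 Enzyme in 20 mM PIPES pH 7.0, 150 mM NaCl, 0.001% Tween 20 with 4MU-B at 10 μM final and MGL at 5 nM final; compounds 17 to 0.0003 μM final, enzyme added last. Fluorescence (ex 335/em 440 nm) followed at 37° C for 5 min; IC50 from fit of fractional activity versus inhibitor concentration.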

With `Cc1c(C(=O)N2CC(N[C@H]3CCN(C(=O)c4nccs4)C3)C2)sc2ccc(-c3cccc(C(F)(F)F)c3)cc12` [Cpd 90, (3S)-N-[1-({3-Methyl-5-[3-(trifluoromethyl)phenyl]-1-benzothiophen-2-yl}carbonyl)azetidin-3-yl]-1-(1,3-thiazol-2-ylcarbonyl)pyrrolidin-3-amine], the “Rat Brain 2AG % VehCntrl (%) @1 μM” value in assay [1] is on record as 1130%. Also, the pIC50 (commonly the IC50 on a negative log10 scale, so that one unit is a factor of ten) in assay [2] is greater than 8.30.
Take `O=C(c1nccs1)N1CC[C@H](NC2CN(C(=O)c3sc4cc(-c5ccc(C(F)(F)F)cc5)ccc4c3Cl)C2)C1` [Cpd 150, (3S)-N-[1-({3-Chloro-6-[4-(trifluoromethyl)phenyl]-1-benzothiophen-2-yl}carbonyl)azetidin-3-yl]-1-(1,3-thiazol-2-ylcarbonyl)pyrrolidin-3-amine]: the “Rat Brain 2AG % VehCntrl (%) @1 μM” value in assay [1] is given as 759%. Besides, the pIC50 in assay [2] is greater than 8.30.
Consider `O=C(c1cscn1)N1CC[C@H](NC2CN(C(=O)c3cc4cc(-c5ccccc5)ccc4s3)C2)C1` [Cpd 131, (3S)-N-{1-[(5-Phenyl-1-benzothiophen-2-yl)carbonyl]azetidin-3-yl}-1-(1,3-thiazol-4-ylcarbonyl)pyrrolidin-3-amine], for which the “Rat Brain 2AG % VehCntrl (%) @1 μM” value in assay [1] was 385%. The pIC50 in assay [2] was greater than 8.30.
The like results for `Cc1c(C(=O)N2CC(N[C@H]3CCN(C(=O)c4ccccc4)C3)C2)sc2ccc(-c3ccc(F)cc3)cc12` [Cpd 94, (3S)-N-(1-{[5-(4-Fluorophenyl)-3-methyl-1-benzothiophen-2-yl]carbonyl}azetidin-3-yl)-1-(phenylcarbonyl)pyrrolidin-3-amine] were, in that order, 445% and greater than 8.30.
For `O=C(c1ccc2c(ccn2-c2ccc(F)cc2)c1)N1CC(N[C@H]2CCN(C(=O)c3ccccc3)C2)C1` [Cpd 161, (3S)-N-(1-{[1-(4-Fluorophenyl)-1H-indol-5-yl]carbonyl}azetidin-3-yl)-1-(phenylcarbonyl)pyrrolidin-3-amine], in that order: 485% and 7.26.
For `O=C(c1cscn1)N1CC[C@H](NC2CN(C(=O)c3sc4cc(-c5ccc(C(F)(F)F)cc5)ccc4c3Cl)C2)C1` [Cpd 151, (3S)-N-[1-({3-Chloro-6-[4-(trifluoromethyl)phenyl]-1-benzothiophen-2-yl}carbonyl)azetidin-3-yl]-1-(1,3-thiazol-4-ylcarbonyl)pyrrolidin-3-amine], in that order: 495% and greater than 8.30.
Turning to `O=C(c1cc2ccc(-c3cccc(C(F)(F)F)c3)cc2s1)N1CC(N[C@H]2CCN(C(=O)c3nccs3)C2)C1` [Cpd 99, (3S)-1-(1,3-Thiazol-2-ylcarbonyl)-N-[1-({6-[3-(trifluoromethyl)phenyl]-1-benzothiophen-2-yl}carbonyl)azetidin-3-yl]pyrrolidin-3-amine], the “Rat Brain 2AG % VehCntrl (%) @1 μM” value in assay [1] is recorded as 644%. For the same compound, the pIC50 in assay [2] is greater than 8.30.
As for `O=C(c1nccs1)N1CC[C@H](NC2CN(C(=O)c3ccc4c(ccn4-c4ccc(F)cc4)c3F)C2)C1` [Cpd 198, (3S)-N-(1-{[4-Fluoro-1-(4-fluorophenyl)-1H-indol-5-yl]carbonyl}azetidin-3-yl)-1-(1,3-thiazol-2-ylcarbonyl)pyrrolidin-3-amine], the “Rat Brain 2AG % VehCntrl (%) @1 μM” value in assay [1] is recorded as 937%. Also, in assay [2], the pIC50 was greater than 8.30.
As for `O=C(c1ccc2c(c1)c(F)cn2-c1ccc(F)cc1)N1CC(N[C@H]2CCN(C(=O)c3cscn3)C2)C1` [Cpd 143, (3S)-N-(1-{[3-Fluoro-1-(4-fluorophenyl)-1H-indol-5-yl]carbonyl}azetidin-3-yl)-1-(1,3-thiazol-4-ylcarbonyl)pyrrolidin-3-amine], the “Rat Brain 2AG % VehCntrl (%) @1 μM” value in assay [1] is given as 244%. Also, the pIC50 in assay [2] is 7.33.
`Cc1ccc2c(C(F)(F)F)c(C(=O)N3CC(N[C@H]4CCN(C(=O)c5nccs5)C4)C3)sc2c1` [Cpd 186, (3S)-N-(1-{[6-Methyl-3-(trifluoromethyl)-1-benzothiophen-2-yl]carbonyl}azetidin-3-yl)-1-(1,3-thiazol-2-ylcarbonyl)pyrrolidin-3-amine]: in assay [1], the “Rat Brain 2AG % VehCntrl (%) @1 μM” value is given as 563%. Further, the pIC50 in assay [2] was 7.04.
The like results for `Cn1nc(-c2ccccc2)c2cc(C(=O)N3CC(N[C@H]4CCN(C(=O)c5nccs5)C4)C3)ccc21` [Cpd 195, (3S)-N-{1-[(1-Methyl-3-phenyl-1H-indazol-5-yl)carbonyl]azetidin-3-yl}-1-(1,3-thiazol-2-ylcarbonyl)pyrrolidin-3-amine] were, in that order, 472% and 7.65.
Turning to `Cc1c(C(=O)N2CC(N[C@H]3CCN(C(=O)c4nccs4)C3)C2)sc2ccc(Cl)cc12` [Cpd 84, (3S)-N-{1-[(5-Chloro-3-methyl-1-benzothiophen-2-yl)carbonyl]azetidin-3-yl}-1-(1,3-thiazol-2-ylcarbonyl)pyrrolidin-3-amine], the “Rat Brain 2AG % VehCntrl (%) @1 μM” value in assay [1] was 433%. The pIC50 in assay [2] is greater than 8.30.
The like results for `O=C(c1ccc2c(-c3ccc(C(F)(F)F)cc3)c[nH]c2c1)N1CC(N[C@H]2CCN(C(=O)c3nccs3)C2)C1` [Cpd 104, (3S)-1-(1,3-Thiazol-2-ylcarbonyl)-N-[1-({3-[4-(trifluoromethyl)phenyl]-1H-indol-6-yl}carbonyl)azetidin-3-yl]pyrrolidin-3-amine] were, in that order, 195% and 7.65.
For the compound `O=C(c1ccc(-c2cccc(C(F)(F)F)c2)cc1)N1CC(N[C@H]2CCN(C(=O)c3nccs3)C2)C1` [Cpd 113, (3S)-1-(1,3-Thiazol-2-ylcarbonyl)-N-(1-{[3′-(trifluoromethyl)biphenyl-4-yl]carbonyl}azetidin-3-yl)pyrrolidin-3-amine], in assay [1], the “Rat Brain 2AG % VehCntrl (%) @1 μM” value was determined as 832%. Moreover, the pIC50 in assay [2] was greater than 8.30.
The like results for `O=C(c1nccs1)N1CC[C@H](NC2CN(C(=O)c3sc4cc(C(F)(F)F)ccc4c3Cl)C2)C1` [Cpd 167, (3S)-N-(1-{[3-Chloro-6-(trifluoromethyl)-1-benzothiophen-2-yl]carbonyl}azetidin-3-yl)-1-(1,3-thiazol-2-ylcarbonyl)pyrrolidin-3-amine] were, in that order, 695% and 7.96.
For `Cn1cc(-c2cccc(C(F)(F)F)c2)c2ccc(C(=O)N3CC(N[C@H]4CCN(C(=O)c5ccccc5)C4)C3)cc21` [Cpd 166, (3S)-N-[1-({1-Methyl-3-[3-(trifluoromethyl)phenyl]-1H-indol-6-yl}carbonyl)azetidin-3-yl]-1-(phenylcarbonyl)pyrrolidin-3-amine], in that order: 322% and 7.30.
For `Cc1c(C(=O)N2CC(N[C@H]3CCN(C(=O)c4ccccc4)C3)C2)sc2ccc(-c3cccc(F)c3)cc12` [Cpd 93, (3S)-N-(1-{[5-(3-Fluorophenyl)-3-methyl-1-benzothiophen-2-yl]carbonyl}azetidin-3-yl)-1-(phenylcarbonyl)pyrrolidin-3-amine], in that order: 963% and greater than 8.30.
In the case of `O=C(c1ccc2c(-c3cccc(C(F)(F)F)c3)c[nH]c2c1)N1CC(N[C@H]2CCN(C(=O)c3cscn3)C2)C1` [Cpd 106, (3S)-1-(1,3-Thiazol-4-ylcarbonyl)-N-[1-({3-[3-(trifluoromethyl)phenyl]-1H-indol-6-yl}carbonyl)azetidin-3-yl]pyrrolidin-3-amine], the “Rat Brain 2AG % VehCntrl (%) @1 μM” value in assay [1] is 389%. Moreover, the pIC50 in assay [2] is greater than 8.30.
As for `O=C(c1ccc2c(ccn2-c2ncccn2)c1)N1CC(N[C@H]2CCN(C(=O)c3nccs3)C2)C1` [Cpd 119, (3S)-N-{1-[(1-Pyrimidin-2-yl-1H-indol-5-yl)carbonyl]azetidin-3-yl}-1-(1,3-thiazol-2-ylcarbonyl)pyrrolidin-3-amine], the “Rat Brain 2AG % VehCntrl (%) @1 μM” value in assay [1] is 255%. The pIC50 in assay [2] is 7.31.
The like results for `O=C(c1ccccc1)N1CC[C@H](NC2CN(C(=O)c3sc4ccc(Cl)cc4c3C(F)(F)F)C2)C1` [Cpd 180, (3S)-N-(1-{[5-Chloro-3-(trifluoromethyl)-1-benzothiophen-2-yl]carbonyl}azetidin-3-yl)-1-(phenylcarbonyl)pyrrolidin-3-amine] were, in that order, 333% and 7.37.
The like results for `O=C(c1nccs1)N1CC[C@H](NC2CN(C(=O)c3sc4ccc(-c5ccc(C(F)(F)F)cc5)cc4c3F)C2)C1` [Cpd 174, (3S)-N-[1-({3-Fluoro-5-[4-(trifluoromethyl)phenyl]-1-benzothiophen-2-yl}carbonyl)azetidin-3-yl]-1-(1,3-thiazol-2-ylcarbonyl)pyrrolidin-3-amine] were, in that order, 791% and 8.00.
With `Cc1c(C(=O)N2CC(N[C@H]3CCN(C(=O)c4cscn4)C3)C2)sc2ccc(Cl)cc12` [Cpd 85, (3S)-N-{1-[(5-Chloro-3-methyl-1-benzothiophen-2-yl)carbonyl]azetidin-3-yl}-1-(1,3-thiazol-4-ylcarbonyl)pyrrolidin-3-amine], in assay [1], the “Rat Brain 2AG % VehCntrl (%) @1 μM” value was found to be 335%. Besides, the negative-log IC50 (pIC50) in assay [2] was 7.32.
